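1) Cells in 96-well plates. 2) Compound, 48 h, 5 concentrations. 3) Linear interpolation between surrounding doses. 4) Unreached endpoint = highest concentration. GI50: concentration for 50% inhibition of growth. TGI denotes the concentration required for complete inhibition of growth.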
Legend:
Assay in all cases: DTP human tumour cell line panel, 48 h
OVCAR-8 ovarian = test system: OVCAR-8 ovarian
HL-60(TB) leukemia = test system: HL-60(TB) leukemia
NCI/ADR-RES ovarian = test system: NCI/ADR-RES ovarian
COLO 205 colon = test system: COLO 205 colon
HS 578T breast = test system: HS 578T breast
UO-31 renal = test system: UO-31 renal
SK-MEL-5 melanoma = test system: SK-MEL-5 melanoma
M14 melanoma = test system: M14 melanoma
SK-OV-3 ovarian = test system: SK-OV-3 ovarian
ACHN renal = test system: ACHN renal
SN12C renal = test system: SN12C renal
PC-3 prostate = test system: PC-3 prostate
SNB-19 CNS = test system: SNB-19 CNS
CAKI-1 renal = test system: CAKI-1 renal
HCT-116 colon = test system: HCT-116 colon
UACC-62 melanoma = test system: UACC-62 melanoma
U251 CNS = test system: U251 CNS
DU-145 prostate = test system: DU-145 prostate
SF-539 CNS = test system: SF-539 CNS
HCT-15 colon = test system: HCT-15 colon
OVCAR-3 ovarian = test system: OVCAR-3 ovarian
786-0 renal = test system: 786-0 renal
HOP-62 NSCLC = test system: HOP-62 NSCLC
BT-549 breast = test system: BT-549 breast
MDA-MB-435 = test system: MDA-MB-435
RPMI-8226 leukemia = test system: RPMI-8226 leukemia
MCF7 breast = test system: MCF7 breast
OVCAR-5 ovarian = test system: OVCAR-5 ovarian
TK-10 renal = test system: TK-10 renal
MDA-MB-231 breast = test system: MDA-MB-231 breast
HOP-92 NSCLC = test system: HOP-92 NSCLC
KM12 colon = test system: KM12 colon
NCI-H23 lung = test system: NCI-H23 lung
K-562 leukemia = test system: K-562 leukemia
UACC-257 melanoma = test system: UACC-257 melanoma
T-47D breast = test system: T-47D breast
LOX IMVI melanoma = test system: LOX IMVI melanoma
A549 NSCLC = test system: A549 NSCLC
SW-620 colon = test system: SW-620 colon
SF-295 CNS = test system: SF-295 CNS
NCI-H460 lung = test system: NCI-H460 lung
SF-268 CNS = test system: SF-268 CNS
EKVX NSCLC = test system: EKVX NSCLC

`CCSc1nc2[nH]c(=S)[nH]c(=S)c2c(-c2ccc(OC)c(OC)c2)c1C#N` showed a GI50 (OVCAR-8 ovarian) of 18.9 µM, a TGI (OVCAR-8 ovarian) greater than 50 µM and a GI50 (HL-60(TB) leukemia) of 16.1 µM. It also gave a TGI (HL-60(TB) leukemia) greater than 50 µM, a GI50 (NCI/ADR-RES ovarian) of 14.7 µM and a TGI (NCI/ADR-RES ovarian) of 32.8 µM. The GI50 (COLO 205 colon) was 14.2 µM, the TGI (COLO 205 colon) was 45.2 µM and the GI50 (HS 578T breast) was 13.2 µM. It also gave a TGI (HS 578T breast) of 45.8 µM, a GI50 (UO-31 renal) of 11.7 µM and a TGI (UO-31 renal) of 36 µM. The GI50 (SK-MEL-5 melanoma) was 6.86 µM, the TGI (SK-MEL-5 melanoma) was 21.5 µM and the GI50 (M14 melanoma) was 15.2 µM. For the same compound, the TGI (M14 melanoma) was greater than 50 µM, the GI50 (SK-OV-3 ovarian) was 21.1 µM and the TGI (SK-OV-3 ovarian) was greater than 50 µM. The GI50 (ACHN renal) was 17.2 µM, the TGI (ACHN renal) was greater than 50 µM and the GI50 (SN12C renal) was 16.9 µM. The TGI (SN12C renal) was greater than 50 µM, the GI50 (PC-3 prostate) was 22.6 µM and the TGI (PC-3 prostate) was greater than 50 µM. The GI50 (SNB-19 CNS) was 21.4 µM, the TGI (SNB-19 CNS) was greater than 50 µM and the GI50 (CAKI-1 renal) was 17.4 µM. It also gave a TGI (CAKI-1 renal) greater than 50 µM, a GI50 (HCT-116 colon) of 18.2 µM and a TGI (HCT-116 colon) greater than 50 µM. The GI50 (UACC-62 melanoma) was 14.3 µM, the TGI (UACC-62 melanoma) was greater than 50 µM and the GI50 (U251 CNS) was 17.8 µM. For the same compound, the TGI (U251 CNS) was greater than 50 µM, the GI50 (DU-145 prostate) was 21.8 µM and the TGI (DU-145 prostate) was greater than 50 µM. For the same compound, the GI50 (SF-539 CNS) was 14.8 µM, the TGI (SF-539 CNS) was 35.4 µM and the GI50 (HCT-15 colon) was 16.5 µM. It also gave a TGI (HCT-15 colon) greater than 50 µM, a GI50 (OVCAR-3 ovarian) of 11 µM and a TGI (OVCAR-3 ovarian) of 34.6 µM. The GI50 (786-0 renal) was 16.5 µM, the TGI (786-0 renal) was greater than 50 µM and the GI50 (HOP-62 NSCLC) was 19.8 µM. It also gave a TGI (HOP-62 NSCLC) greater than 50 µM, a GI50 (BT-549 breast) of 14.6 µM and a TGI (BT-549 breast) of 46.8 µM. It also gave a GI50 (MDA-MB-435) of 10.5 µM, a TGI (MDA-MB-435) of 42.5 µM and a GI50 (RPMI-8226 leukemia) of 16.8 µM. The TGI (RPMI-8226 leukemia) was greater than 50 µM, the GI50 (MCF7 breast) was 22.1 µM and the TGI (MCF7 breast) was greater than 50 µM. For the same compound, the GI50 (OVCAR-5 ovarian) was greater than 50 µM, the TGI (OVCAR-5 ovarian) was greater than 50 µM and the GI50 (TK-10 renal) was 43.5 µM. It also gave a TGI (TK-10 renal) greater than 50 µM, a GI50 (MDA-MB-231 breast) of 9.75 µM and a TGI (MDA-MB-231 breast) of 40.3 µM. For the same compound, the GI50 (HOP-92 NSCLC) was 19 µM, the TGI (HOP-92 NSCLC) was greater than 50 µM and the GI50 (KM12 colon) was 21.9 µM. For the same compound, the TGI (KM12 colon) was greater than 50 µM, the GI50 (NCI-H23 lung) was 18.6 µM and the TGI (NCI-H23 lung) was greater than 50 µM. The GI50 (K-562 leukemia) was 9.68 µM, the TGI (K-562 leukemia) was 24.3 µM and the GI50 (UACC-257 melanoma) was 16.5 µM. For the same compound, the TGI (UACC-257 melanoma) was 43.7 µM, the GI50 (T-47D breast) was 23.5 µM and the TGI (T-47D breast) was greater than 50 µM. The GI50 (LOX IMVI melanoma) was 14.5 µM, the TGI (LOX IMVI melanoma) was greater than 50 µM and the GI50 (A549 NSCLC) was 14.8 µM. The TGI (A549 NSCLC) was greater than 50 µM, the GI50 (SW-620 colon) was 26.5 µM and the TGI (SW-620 colon) was greater than 50 µM. For the same compound, the GI50 (SF-295 CNS) was 18.9 µM, the TGI (SF-295 CNS) was greater than 50 µM and the GI50 (NCI-H460 lung) was 21 µM. It also gave a TGI (NCI-H460 lung) greater than 50 µM, a GI50 (SF-268 CNS) of 15.9 µM and a TGI (SF-268 CNS) of 46.4 µM. The GI50 (EKVX NSCLC) was 17 µM and the TGI (EKVX NSCLC) was greater than 50 µM.

From PubChem BioAssay (NCI)
